Results as given in US6506772B1, “Substituted [1,2,4]triazolo[1,5a]pyridine derivatives with activity as adenosine receptor ligands” (Hoffmann-La Roche Inc., priority 2000, dated 2003).

These compounds were tested against T1, HA1 adenosine receptor (Homo sapiens, UniProt P30542) (assay: Human adenosine A1 receptor affinity (Ki hA1)). Conditions: affinity to human adenosine A1 receptor.
T1 sequence (P30542 1-326): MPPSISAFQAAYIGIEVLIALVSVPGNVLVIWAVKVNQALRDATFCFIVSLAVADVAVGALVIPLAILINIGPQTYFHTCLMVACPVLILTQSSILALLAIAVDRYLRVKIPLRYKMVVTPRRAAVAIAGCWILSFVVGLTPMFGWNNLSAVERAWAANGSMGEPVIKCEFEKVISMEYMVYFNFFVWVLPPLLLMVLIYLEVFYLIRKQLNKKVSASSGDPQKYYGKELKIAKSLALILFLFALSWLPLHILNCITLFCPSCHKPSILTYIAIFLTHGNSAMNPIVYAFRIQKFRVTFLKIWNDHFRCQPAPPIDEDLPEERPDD
Assay type: binding

SMILES	Ki [nM]
CCN(CC)C(=O)c1cc(N)n2nc(-c3ccc(Br)o3)nc2c1 [Example 21, 5-Amino-2-(5-bromo-furan-2-yl)-[1,2,4]triazolo[1,5-a]pyridine-7-carboxylic acid diethylamide]	232
Nc1cc(C(=O)N2CCCC2)cc2nc(-c3ccc(Br)o3)nn12 [Example 22, [5-Amino-2-(5-bromo-furan-2-yl)-[1,2,4]triazolo[1,5-a]pyridin-7-yl]-pyrrolidin-1-yl-methanone]	548
Nc1cc(C(=O)N2CCCCC2)cc2nc(-c3ccc(Br)o3)nn12 [Example 23, [5-Amino-2-(5-bromo-furan-2-yl)-[1,2,4]triazolo[1,5-a]pyridin-7-yl]-piperidin-1-yl-methanone]	276
Cc1ccc(-c2nc3cc(C(=O)N4CCCC4)cc(N)n3n2)o1 [Example 27, [5-Amino-2-(5-methyl-furan-2-yl)-[1,2,4]triazolo[1,5-a]pyridin-7-yl]-pyrrolidin-1-yl-methanone]	940
Cc1ccc(-c2nc3cc(C(=O)N4CCCCC4)cc(N)n3n2)o1 [Example 28, [5-Amino-2-(5-methyl-furan-2-yl)-[1,2,4]triazolo[1,5-a]pyridin-7-yl]-piperidin-1-yl-methanone]	696
Nc1cc(C(=O)N2CCCC2)cc2nc(-c3ccco3)nn12 [Example 106, (5-Amino-2-furan-2-yl-[1,2,4]triazolo[1,5-a]pyridin-7-yl)-pyrrolidin-1-yl-methanone]	1730
Nc1cc(C(=O)N2CCCCC2)cc2nc(-c3ccco3)nn12 [Example 107, (5-Amino-2-furan-2-yl-[1,2,4]triazolo[1,5-a]pyridin-7-yl)-piperidin-1-yl-methanone]	2720

What follows are compounds tested against T2, human adenosine A2A receptor (Homo sapiens, UniProt P29274) (assay: Human adenosine A2A receptor [3H]-SCH-58261 binding assay). Conditions: affinity to human adenosine A2A receptor; read-out: Ki HA2A.
T2 construct: expressed in transfected cells; host or cells: CHO cells, Semliki Forest virus expression system; membrane preparation
T2 sequence (P29274 whole entry): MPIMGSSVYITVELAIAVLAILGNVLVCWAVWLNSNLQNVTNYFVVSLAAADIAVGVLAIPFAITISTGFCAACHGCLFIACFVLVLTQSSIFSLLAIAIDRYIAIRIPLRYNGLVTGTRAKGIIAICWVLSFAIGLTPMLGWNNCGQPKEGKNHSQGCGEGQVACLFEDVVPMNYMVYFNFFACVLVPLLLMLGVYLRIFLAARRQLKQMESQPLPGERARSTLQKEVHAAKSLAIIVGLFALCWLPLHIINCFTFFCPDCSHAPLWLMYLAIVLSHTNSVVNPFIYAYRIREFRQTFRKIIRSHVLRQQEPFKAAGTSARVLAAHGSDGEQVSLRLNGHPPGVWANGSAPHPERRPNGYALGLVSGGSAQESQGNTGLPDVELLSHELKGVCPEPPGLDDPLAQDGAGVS
Protocol: Human Adenosine A2A Receptor
The human adenosine A2A receptor was recombinantly expressed in chinese hamster ovary (CHO) cells using the semliki forest virus expression system. Cells were harvested, washed twice by centrifugation, homogenized and again washed by centrifugation. The final washed membrane pellet was suspended in a Tris (50 mM) buffer containing 120 mM NaCl, 5 mM KCl, 2 mM CaCl2 and 10 MM MgCl2 (pH 7.4) (buffer A). […] Compounds were tested at 10 concentrations from 10 μM-0.3 nM. All assays were conducted in duplicate and repeated at least two times. Assay plates were incubated for 1 hour at room temperature before centrifugation and then bound ligand determined using a Packard Topcount scintillation counter. IC50 values were calculated using a non-linear curve fitting program and Ki values calculated using the Cheng-Prussoff equation.

SMILES	Ki [nM]
Cc1ccsc1-c1nc2cc(C(=O)NC3CCCCC3)cc(N)n2n1 [Example 37, 5-Amino-2-(3-methyl-thiophen-2-yl)-[1,2,4]triazolo[1,5-a]pyridine-7-carboxylic acid cyclohexylamide]	375
COc1ccc(CNC(=O)c2cc(N)n3nc(-c4ccccn4)nc3c2)cc1 [Example 42, 5-Amino-2-pyridin-2-yl-[1,2,4]triazolo[1,5-a]pyridine-7-carboxylic acid 4-methoxy-benzylamide]	341
COc1ccc(-c2nc3cc(C(=O)N(CCN(C)C)Cc4ccccc4)cc(N)n3n2)s1 [Example 53, 5-Amino-2-(5-methoxy-thiophen-2-yl)-[1,2,4]triazolo[1,5-a]pyridine-7-carboxylic acid benzyl-(2-dimethylamino-ethyl)-amide]	327
COc1ccc(-c2nc3cc(C(=O)NCCc4ccccc4OC)cc(N)n3n2)s1 [Example 54, 5-Amino-2-(5-methoxy-thiophen-2-yl)-[1,2,4]triazolo[1,5-a]pyridine-7-carboxylic acid [2-(2-methoxy-phenyl)-ethyl]-amide]	315
COc1ccc(-c2nc3cc(C(=O)NCCc4ccccc4F)cc(N)n3n2)s1 [Example 57, 5-Amino-2-(5-methoxy-thiophen-2-yl)-[1,2,4]triazolo[1,5-a]pyridine-7-carboxylic acid [2-(2-fluoro-phenyl)-ethyl]-amide]	337
COc1ccc(-c2nc3cc(C(=O)NC(C)c4ccccc4)cc(N)n3n2)s1 (centres unmarked) [Example 60, 5-Amino-2-(5-methoxy-thiophen-2-yl)-[1,2,4]triazolo[1,5-a]pyridine-7-carboxylic acid (1-phenyl-ethyl)-amide]	392
COc1ccc(-c2nc3cc(C(=O)NCc4cccnc4)cc(N)n3n2)s1 [Example 61, 5-Amino-2-(5-methoxy-thiophen-2-yl)-[1,2,4]triazolo[1,5-a]pyridine-7-carboxylic acid (pyridin-3-ylmethyl)-amide]	333
COc1ccc(-c2nc3cc(C(=O)N4CCCC4)cc(N)n3n2)s1 [Example 69, [5-Amino-2-(5-methoxy-thiophen-2-yl)-[1,2,4]triazolo[1,5-a]pyridin-7-yl]-pyrrolidin-1-yl-methanone]	339
COc1ccc(-c2nc3cc(C(=O)NC4CC4)cc(N)n3n2)s1 [Example 72, 5-Amino-2-(5-methoxy-thiophen-2-yl)-[1,2,4]triazolo[1,5-a]pyridine-7-carboxylic acid cyclopropylamide]	260
COc1ccc(-c2nc3cc(C(=O)NC4CCCCCC4)cc(N)n3n2)s1 [Example 74, 5-Amino-2-(5-methoxy-thiophen-2-yl)-[1,2,4]triazolo[1,5-a]pyridine-7-carboxylic acid cycloheptylamide]	367
CCN(Cc1ccccc1F)C(=O)c1cc(N)n2nc(-c3ccc(OC)s3)nc2c1 [Example 76, 5-Amino-2-(5-methoxy-thiophen-2-yl)-[1,2,4]triazolo[1,5-a]pyridine-7-carboxylic acid ethyl-(2-fluoro-benzyl)-amide]	28.5
Nc1cc(C(=O)NCc2ccccc2Br)cc2nc(-c3ccc[nH]3)nn12 [Example 92, 5-Amino-2-(1H-pyrrol-2-yl)-[1,2,4]triazolo[1,5-a]pyridine-7-carboxylic acid 2-bromo-benzylamide]	293
CCN(Cc1ccccc1)C(=O)c1cc(N)n2nc(-c3ccc[nH]3)nc2c1 [Example 94, 5-Amino-2-(1H-pyrrol-2-yl)-[1,2,4]triazolo[1,5-a]pyridine-7-carboxylic acid benzyl-ethyl-amide]	395
Nc1cc(C(=O)NC2CCC2)cc2nc(-c3ccc[nH]3)nn12 [Example 95, 5-Amino-2-(1H-pyrrol-2-yl)-[1,2,4]triazolo[1,5-a]pyridine-7-carboxylic acid cyclobutylamide]	392
COc1ccc(CNC(=O)c2cc(N)n3nc(-c4cccs4)nc3c2)cc1 [Example 229, 5-Amino-2-thiophen-2-yl-[1,2,4]triazolo[1,5-a]pyridine-7-carboxylic acid 4-methoxy-benzylamide]	384
Nc1cc(C(=O)NCc2ccc(Cl)cc2)cc2nc(-c3ccoc3)nn12 [Example 230, 5-Amino-2-furan-3-yl-[1,2,4]triazolo[1,5-a]pyridine-7-carboxylic acid 4-chloro-benzylamide]	329
COc1ccc(CNC(=O)c2cc(N)n3nc(-c4ccc(Br)o4)nc3c2)cc1 [Example 231, 5-Amino-2-(5-bromo-furan-2-yl)-[1,2,4]triazolo[1,5-a]pyridine-7-carboxylic acid 4-methoxy-benzylamide]	365
Nc1cc(C(=O)N2CCSCC2)cc2nc(-c3nccs3)nn12 [Example 318, (5-Amino-2-thiazol-2-yl-[1,2,4]triazolo[1,5-a]pyridin-7-yl)-thiomorpholin-4-yl-methanone]	332
COCCN(CCOC)C(=O)c1cc(N)n2nc(-c3nccs3)nc2c1 [Example 321, 5-Amino-2-thiazol-2-yl-[1,2,4]triazolo[1,5-a]pyridine-7-carboxylic acid bis-(2-methoxy-ethyl)-amide]	319
CN(CCc1ccccn1)C(=O)c1cc(N)n2nc(-c3nccs3)nc2c1 [Example 324, 5-Amino-2-thiazol-2-yl-[1,2,4]triazolo[1,5-a]pyridine-7-carboxylic acid methyl-(2-pyridin-2-yl-ethyl)-amide]	295
Nc1cc(C(=O)N2CC=C(c3ccccc3)CC2)cc2nc(-c3nccs3)nn12 [Example 326, (5-Amino-2-thiazol-2-yl-[1,2,4]triazolo[1,5-a]pyridin-7-yl)-(4-phenyl-3,6-dihydro-2H-pyridin-1-yl)-methanone]	373

Same assay, conditions: ratio KiHA1 divided by KiHA2A

SMILES	selectivity (A1/A2a)
CN(C)C(=O)CN(C)C(=O)c1cc(N)n2nc(-c3nccs3)nc2c1 [Example 399, 5-Amino-2-thiazol-2-yl-[1,2,4]triazolo[1,5-a]pyridine-7-carboxylic acid dimethylcarbamoylmethyl-methyl-amide]	61.4
CN(C)C(=O)[C@@H]1CCCN1C(=O)c1cc(N)n2nc(-c3nccs3)nc2c1 [Example 402, 1-(5-Amino-2-thiazol-2-yl-[1,2,4]triazolo[1,5-a]pyridine-7-carbonyl)-pyrrolidine-2-carboxylic acid dimethylamide]	21.2
CC(=O)N(C)C1CCN(C(=O)c2cc(N)n3nc(-c4nccs4)nc3c2)C1 (centres unmarked) [Example 403, N-[1-(5-Amino-2-thiazol-2-yl-[1,2,4]triazolo[1,5-a]pyridine-7-carbonyl)-pyrrolidin-3-yl]-N-methyl-acetamide]	15.6
CN(C)C(=O)CN(C)C(=O)c1cc(N)n2nc(-c3ccccn3)nc2c1 [Example 428, 5-Amino-2-pyridin-2-yl-[1,2,4]triazolo[1,5-a]pyridine-7-carboxylic acid dimethylcarbamoylmethyl-methyl-amide]	53.1
CCN(CC)C(=O)C1CCCN(C(=O)c2cc(N)n3nc(-c4ccccn4)nc3c2)C1 (centres unmarked) [Example 434, 1-(5-Amino-2-pyridin-2-yl-[1,2,4]triazolo[1,5-a]pyridine-7-carbonyl)-piperidine-3-carboxylic acid diethylamide]	52.6

Same assay, conditions: recombinant human A2A in CHO cell membranes, [3H]-SCH-58261, Cheng-Prussoff; read-out: Ki hA2A

SMILES	Ki [nM]
CN(C)C(=O)CN(C)C(=O)c1cc(N)n2nc(-c3nccs3)nc2c1 [Example 399, 5-Amino-2-thiazol-2-yl-[1,2,4]triazolo[1,5-a]pyridine-7-carboxylic acid dimethylcarbamoylmethyl-methyl-amide]	101
CN(C)C(=O)[C@@H]1CCCN1C(=O)c1cc(N)n2nc(-c3nccs3)nc2c1 [Example 402, 1-(5-Amino-2-thiazol-2-yl-[1,2,4]triazolo[1,5-a]pyridine-7-carbonyl)-pyrrolidine-2-carboxylic acid dimethylamide]	293
CC(=O)N(C)C1CCN(C(=O)c2cc(N)n3nc(-c4nccs4)nc3c2)C1 (centres unmarked) [Example 403, N-[1-(5-Amino-2-thiazol-2-yl-[1,2,4]triazolo[1,5-a]pyridine-7-carbonyl)-pyrrolidin-3-yl]-N-methyl-acetamide]	398
CN(C)C(=O)CN(C)C(=O)c1cc(N)n2nc(-c3ccccn3)nc2c1 [Example 428, 5-Amino-2-pyridin-2-yl-[1,2,4]triazolo[1,5-a]pyridine-7-carboxylic acid dimethylcarbamoylmethyl-methyl-amide]	117
CCN(CC)C(=O)C1CCCN(C(=O)c2cc(N)n3nc(-c4ccccn4)nc3c2)C1 (centres unmarked) [Example 434, 1-(5-Amino-2-pyridin-2-yl-[1,2,4]triazolo[1,5-a]pyridine-7-carbonyl)-piperidine-3-carboxylic acid diethylamide]	118
